Laboratory results as given in US20250346613A1, “BORIC ACID PROTEASOME INHIBITOR AND USE THEREOF” (ARTIVILA BIOPHARMA, priority 2022, published 2025).

Tested on: MM.1S cell strain
Assay: Inhibitory activity of cell strain (CellTiter-Glo)
Type: cell-based
Conditions: Homo sapiens, MM1.S, 72 h incubation
Procedure: The cells used in this experiment were MM.1S cell strain and the detection reagent was CellTiter-Glo (Promega). […] The experimental process was described below. MM.1S cells in the logarithmic growth phase and in a good status were digested into individual cells by trypsin, centrifuged to remove the supernatant, and counted. Cells were diluted and 100 μL of cell suspension per well was added to a 96-well enzyme-coated plate at 1×10^5 cells per well. The wells containing only RPMI1640 complete medium were set as blank control. The 96-well plate was transferred to a 37° C. incubator containing 5% CO2 for 24 h of incubation.
The compound was accurately weighed and dissolved in DMSO to a concentration of 10^−2 M. 10 μL of compound was pipetted to 190 μL of DMSO to given a 5×10^−4 M compound. 6 μL of the compound (5×10^−5 M) was pipetted to a new 96-well microplate containing 194 μL of RPMI1640 complete medium and diluted in a 3-fold gradient dilution. 50 μL of the diluted compound was transferred to the 96-well microplate containing the cells such that the final compound concentrations were 5×10^−7 M, 1.67×10^−7 M, 5.55×10^−8 M, 1.85×10^−8 M, 6.17×10^−9 M, 2.06×10^−9 M, 6.86×10^−10 M, 2.29×10^−10 M, and 0 M. For the 0 M, no compound was added, and the same concentration of DMSO was added. The marketed drug bortezomib was used as a positive control. The 96-well microplate added with compounds was placed in the 37° C. incubator for 72 h of incubation.
At the predetermined detection time, the 96-well microplate to be detected was placed at room temperature, added with 40 μL of detection reagent (CellTiter-Glo) per well, and covered with a dark lid or piece of aluminium foil. The contents were mixed on an orbit oscillator for 10 min for complete cell lysis, with a vibration speed of 150 rpm. Luminescence values were detected on a multifunctional microplate reader (BioTek Synergy H1 Hybrid Multi-Mode Reade).
The data were exported and the percentage inhibition was calculated according to the following formula: Inhibition rate=(maximum signal value-compound signal value)/(maximum signal value−blank signal value)×100%, • wherein maximum signal was obtained from alone DMSO-treated cells, and blank signal was obtained from wells containing only culture medium.

SMILES	IC50
[2H]/C(C(=O)NCc1ccccc1)=C(/[2H])C(=O)N[C@@H](Cc1ccccc1)B(O)O [Example 17, (R,E)-(1-(4-(benzylamino)-4-oxobut-2-enamido-2,3-D2)-2-phenylethyl)boric acid]	50 to 200 nM
COc1cccc(CNC(=O)C(F)C(=O)N[C@@H](Cc2coc3ccccc23)B(O)O)c1 (stereo partly drawn) [Example 104, ((1R)-2-(benzofuran-3-yl)-1-(2-fluoro-3-((3-methoxybenzyl)amino)-3-oxopropionamido)ethyl)boric acid]	≤ 50 nM
COc1cccc(CNC(=O)C(F)C(=O)N[C@@H](Cc2ccc(C)cc2)B(O)O)c1 (stereo partly drawn) [Example 103, ((1R)-1-(2-fluoro-3-((3-methoxybenzyl)amino)-3-oxopropionamido)-2-(p-tolyl)ethyl)boric acid]	≤ 50 nM
CC(C(=O)NCc1cccc(C(F)(F)F)c1)C(=O)N[C@@H](Cc1ccc(-c2ccccc2)cc1)B(O)O (stereo partly drawn) [Example 78, ((1R)-2-([1,1′-biphenyl]-4-yl)-1-(2-methyl-3-oxo-3-((3-(trifluoromethyl)benzyl)amino)propionamido)ethyl)boric acid]	≤ 50 nM
COc1cccc(CCNC(=O)C(C)C(=O)N[C@@H](Cc2ccccc2)B(O)O)c1 (stereo partly drawn) [Example 61, ((1R)-1-(3-((3-methoxyphenylethyl)amino)-2-methyl-3-oxopropionamido)-2-phenylethyl)boric acid]	50 to 200 nM
O=C(/C=C/C(=O)N[C@@H](Cc1ccccc1)B(O)O)NCc1cc(Cl)ccc1Cl [Example 12]	200 to 500 nM
COc1cccc(CNC(=O)C(F)C(=O)N[C@@H](Cc2ccccc2)B(O)O)c1 (stereo partly drawn) [Example 102, ((1R)-1-(2-fluoro-3-((3-methoxybenzyl)amino)-3-oxopropionamido)-2-phenylethyl)boric acid]	≤ 50 nM
COc1cccc(CNC(=O)C(Cc2ccccc2)C(=O)N[C@@H](Cc2ccc(-c3ccccc3)cc2)B(O)O)c1 (stereo partly drawn) [Example 72, ((1R)-2-([1,1′-biphenyl]-4-yl)-1-(2-benzyl-3-((3-methoxybenzyl)amino)-3-oxopropionamido)ethyl)boric acid]	≤ 50 nM
Cc1ccc(C[C@H](NC(=O)C(C)C(=O)NCc2cccc(OC(F)(F)F)c2)B(O)O)cc1 (stereo partly drawn) [Example 86, ((1R)-1-(2-methyl-3-oxo-3-((3-(trifluoromethoxy)benzyl)amino)propionamido)-2-(p-tolyl)ethyl)boric acid]	≤ 50 nM
COc1cccc(NC(=O)C(C)C(=O)N[C@@H](Cc2ccccc2)B(O)O)c1 (stereo partly drawn) [Example 67, ((1R)-1-(3-((3-methoxyphenyl)amino)-2-methyl-3-oxopropionamido)-2-phenylethyl)boric acid]	50 to 200 nM
O=C(NCc1cccc(OC(F)(F)F)c1)C(F)C(=O)N[C@@H](Cc1coc2ccccc12)B(O)O (stereo partly drawn) [Example 97, ((1R)-2-(Benzofuran-3-yl)-1-(2-fluoro-3-oxo-3-((3-(trifluoromethoxy)benzyl)amino)propionamido)ethyl)boric acid]	≤ 50 nM
COc1cccc(CNC(=O)C(C(=O)N[C@@H](Cc2ccc(-c3ccccc3)cc2)B(O)O)C(C)C)c1 (stereo partly drawn) [Example 76, ((1R)-2-([1,1′-biphenyl]-4-yl)-1-(2-((3-methoxybenzyl)carbamoyl)-3-methylbutanamido)ethyl)boric acid]	≤ 50 nM
O=C(NCc1cccc(OC(F)(F)F)c1)C(F)C(=O)N[C@@H](Cc1ccccc1)B(O)O (stereo partly drawn) [Example 95, ((1R)-1-(2-fluoro-3-oxo-3-((3-(trifluoromethoxy)benzyl)amino)propionamido)-2-phenylethyl)boric acid]	≤ 50 nM
Cc1ccc(CNC(=O)/C=C/C(=O)N[C@@H](CC(C)C)B(O)O)cc1 [Example 11]	200 to 500 nM
Cc1ccc(C[C@H](NC(=O)C(F)C(=O)NCc2cccc(OC(F)(F)F)c2)B(O)O)cc1 (stereo partly drawn) [Example 96, ((1R)-1-(2-fluoro-3-oxo-3-((3-(trifluoromethoxy)benzyl)amino)propionamido)-2-(p-tolyl)ethyl)boric acid]	≤ 50 nM
COc1cccc(CNC(=O)C(Cc2ccccc2)C(=O)N[C@@H](Cc2coc3ccccc23)B(O)O)c1 (stereo partly drawn) [Example 71, ((1R)-2-(benzofuran-3-yl)-1-(2-benzyl-3-((3-methoxybenzyl)amino)-3-oxopropionamido)ethyl)boric acid]	≤ 50 nM
CC(C(=O)NCc1cccc(OC(F)(F)F)c1)C(=O)N[C@@H](Cc1ccc(-c2ccccc2)cc1)B(O)O (stereo partly drawn) [Example 74, ((1R)-2-([1,1′-biphenyl]-4-yl)-1-(2-methyl-3-oxo-3-((3-(trifluoromethoxy)benzyl)amino)propanamido)ethyl)boronic acid]	≤ 50 nM
COc1ccc(NC(=O)C(C)C(=O)N[C@@H](Cc2ccc(C)cc2)B(O)O)cc1 (stereo partly drawn) [Example 70, ((1R)-1-(3-((4-methoxyphenyl)amino)-2-methyl-3-oxopropionamido)-2-(p-tolyl)ethyl)boric acid]	50 to 200 nM
COc1cccc(CCNC(=O)C(F)C(=O)N[C@@H](Cc2coc3ccccc23)B(O)O)c1 (stereo partly drawn) [Example 101, ((1R)-2-(Benzofuran-3-yl)-1-(2-fluoro-3-((3-methoxyphenylethyl)amino)-3-oxopropionamido)ethyl)boric acid]	≤ 50 nM
O=C(/C=C/C(=O)N[C@@H](Cc1ccccc1)B(O)O)Nc1ccccc1 [Example 8]	50 to 200 nM
Cc1ccc(C[C@H](NC(=O)C(F)(F)C(=O)NCc2cccc(OC(F)(F)F)c2)B(O)O)cc1 [Example 98, (R)-(1-(2,2-difluoro-3-oxo-3-((3-(trifluoromethoxy)benzyl)amino)propionamido)-2-(p-tolyl)ethyl)boric acid]	200 to 500 nM

Biological target: T1, β5i subunit of the 20S proteasome (Homo sapiens, UniProt P20618+P28062)
T1 construct: The proteasome tested in the present disclosure was derived from Raji cells; endogenous in cells; host or cells: Raji cells
Assay: Proteasome inhibitory activity, β5i subunit (Raji cells treated with compound, lysed, Ac-ANW-AMC substrate)
Type: cell-based
Conditions: proteasome from Raji cells incubated with compound 4 h
Excerpt: In the present disclosure, the fluorescent peptide substrate Ac-Ala-Asn-Trp-AMC (abbreviated as Ac-ANW-AMC) and the […] kit containing a fluorescent peptide substrate Suc-Leu-Leu-Val-Tyr-AMC (abbreviated as Suc-LLVY-AMC) (Promega, Item No. G8660) were used to detect the activities of the β5i subunit and β5c subunit of the 20S proteasome, respectively.
The proteasome tested in the present disclosure was derived from Raji cells, the fluorescent substrate Ac-ANW-AMC was purchased from Roche company, and other reagents were purchased from Sigma company. The experimental system was divided into two parts of cell lysis system and enzyme reaction system. […] The starting concentration of the compound (inhibitor) was 1 μM. It was diluted in a 3-fold serial dilution to a total of 8 concentrations, that is, the administration concentration can be 1 μM, 0.333 μM, 0.111 μM . . . , respectively, and the specific experimental process was described below.
Raji cells (1×10^6 cells) cryopreserved in liquid nitrogen were thawed rapidly in a water bath at 37° C. The cell pellet was transferred to a 15 mL centrifuge tube, added with 9 mL of fresh medium (Gibco RPMI1640 added with 10% fetal bovine serum and 1% double antibiotics), centrifuged at 120 g for 5 min, inoculated to 25 mL cell culture flasks, and passaged once every 2-3 days.
The compound was weighed and dissolved in DMSO to a concentration of 10 mM. The compound was then sequentially diluted to concentrations of 200 μM, 66.67 μM, 22.22 μM, 7.41 μM, 2.47 μM, 0.82 μM, 0.27 μM, and 0.091 μM with fresh medium. Raji cells in a good growth status were inoculated into a 48-well cell culture plate at 7×10^5 cells/mL.
Raji cells in a good growth status were taken and counted. They were then inoculated to a 48-well cell culture plate at 7×10^5 cells/mL. Each 5 μL of the various concentrations of diluted compounds above were taken and added to the culture plate inoculated with cells, and the lowest concentration of compound was 0 μM. The drug bortezomib (Velcade) and ONX-0914 were used as the positive control compounds. All cells were incubated at 37° C. for 4 h.
The compound-treated cells were sequentially transferred into 1.5 mL centrifuge tubes, centrifuged at 10000 rpm for 2 min, and the supernatants were removed. The cell pellet was resuspended in 1 mL of PBS, centrifuged at 10000 rpm for 2 min, and the supernatant was removed. Cells were resuspended by adding 100 μL of cell lysate (50 mM Tris of pH 7.5, 150 mM NaCl, 5 mM MgCl2, 5 mM ATP, 1 mM DTT, 0.01% NP-40, 1 mM Digitonin, and Cocktail), placed in an ice bath for 30 min, and centrifuged at 13000 rpm for 10 min.
2 mg of fluorescent peptide substrate AC-ANW-AMC was dissolved in 424.7 μL of DMSO to obtain an 8 mM stock solution, and stored at −20° C. The stock solution was diluted 100-fold to a final concentration of […] for use in the reaction system. The fluorescent peptide substrate Suc-LLVY-AMC was prepared according to the instructions of the Promega kit.
Each 20 μL of the prepared proteasome solution above was added to a 96-well white luciferase microplate and added with 25 μL of AC-ANW-AM substrate buffer solution (50 mM Tris of pH 7.5, 150 mM NaCl, 5 mM MgCl2, 5 mM ATP, 80 uM Ac-ANW-AMC and 1 mM DTT) and 25 μL of Suc-LLVY-AMC substrate buffer solution for 10 min of reaction at 37° C. in the dark. Fluorescence values were read at 345 nm/445 nm by using a fluorence microplate reader.
The data were exported and the inhibition rate in percentage was calculated according to the following formula: Inhibition rate=(maximum signal value-compound signal value)/(maximum signal value−blank signal value)×100%.
Where the maximum signal was obtained from cell lysates treated with DMSO only, and the blank signal was obtained from wells containing only lysates.

SMILES	IC50
O=C(/C=C/C(=O)N[C@@H](Cc1ccccc1)B(O)O)Nc1ccccc1 [Example 8]	50 to 200 nM
